From US20030220524A1, “Sulfur containing compounds” (priority 2000, published 2003) come the findings set out here.

The structures appear in SMILES notation.

The test system of data set [1] is Normal bone marrow (mononucleated, T-cell depleted). The data set is described as follows: MTT assay. As to conditions: T-cell; Normal bone marrow; 48 h; read-out: MTT50. The class given is cell-based. In general terms: Formazan colour is commonly taken as a measure of viable cells.
The test system of data set [2] is AML-3 leukemic cell line. The data set can be described thus: Fixed propidium iodide staining, flow cytometry. It counts as cell-based, human. As to conditions: dose 85.3 uM (20 ug/mL), 48 h. The method, then: (§1) Adherent cell lines were plated at 35×10^4 cells/60 cm^2 dish the day before exposure to compound. Suspension cells were seeded at 25×10^4 cells/mL in a 6 well dish (Falcon) the day of exposure to compound. Mononucleated, T-cell depleted normal bone marrow cells were seeded at 50×10^4 cells/mL in a 6 well dish the day of exposure to compound. Cells were exposed to solvent control or approximate MTT50 and MTT30 concentrations of the compound. After 48 h of exposure to the compound, cells were harvested, fixed in 80% ethanol for 1 h on ice and labeled with 50 μg/mL propidium iodide (Sigma). Approximately 10^6 cells were analyzed using a XL-MCL flow cytometer (Coulter Corporation, Miami, Fla.) and a FACScalibar cytometer (Becton Dickinson, San Jose, Calif.). Profiles shown are a representative.
as §1, with “cm2” for “cm^2”, “concentrations.” for “concentrations of the compound.”, “representative. Cell viability counts and Pi staining were performed as previously described (Dimitroulakos, J, Nohynek, D, Backway, K L, Hedley, D W, Yeger, H, Freedman, M H, Minden, M D and Penn, L Z: Increased sensitivity of acute myeloid leukemias to lovastatin-induced apoptosis: A potential therapeutic approach. Blood 93: 1308-18, 1999).” for “representative.”
Background: A flow cytometer gives signals particle by particle.

The next data set concerns KK leukemic cell line. The data set is described as follows: MTT assay. It counts as cell-based, human. Particulars: Homo sapiens; KK; 48 h; read-out: MTT50.
The subject of data set [3] is WI38 non-transformed diploid fibroblasts. The data set is described as follows: MTT assay. It counts as cell-based, human.
In another data set the test system is B1 leukemic cell line. The data set is described as follows: MTT assay. The class given is cell-based, human. As to conditions: Homo sapiens; B1; 48 h; read-out: MTT50.
Data set [4] has as its system AML-3 leukemic cell line. The data set can be described thus: MTT assay. It counts as cell-based, human. Particulars: Homo sapiens, AML3, 48 h, AML-3, read-out: MTT50.

In the case of `CS(=O)(=O)CSSc1ccccc1` [E, 5-phenyl-2,4,5-trithiapentane 2,2-dioxide], the IC50 amounted to 21.9 µM in data set [1]; 17.5 µM in the data set with KK leukemic cell line; 45.2 µM in data set [3] (Homo sapiens, WI-38, 48 h, WI38 (normal), 48 h, read-out: MTT50); 4.3 µM in the data set on B1 leukemic cell line; 15.4 µM in the data set with AML-3 leukemic cell line [4]. Further, the “% pre-G1 (Fixed PI)” value in the data set with AML-3 leukemic cell line [2] was found to be 24.5%. Moreover, the “Viability of non-transformed human WI38 fibroblasts following exposure” value in data set [3] (in words) is on record as “decreased”.
